According to the supplement of paper PMC7661543:
± gives the standard deviation of the averaged measurements.

Tests used:
Experiment in all cases: relative cell number vs DMSO control (72 h) (% of DMSO); higher = less growth inhibition (more cells)
Conditions in all cases: sgRNA knockout: sgNT
HCC-38 = tested on: HCC-38
Description: (§1)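 QMAP-Seq: a pool of 5 breast cancer cell lines (ZR-75-1, SKBR3, HCC-38, MDA-MB-231, BT-20), each carrying 12 doxycycline-inducible Cas9 sgRNA perturbations (11 knockouts plus non-targeting sgNT), was treated with compounds for 72 h at four 10-fold doses (10 nM-10 uM or 1 nM-1 uM range). Barcodes were amplified and sequenced, and cell number was interpolated from 293T spike-in standard curves. The result is expressed as % of the median of DMSO wells. Two biological replicates.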

ZR-75-1 = tested on: ZR-75-1
Description: as §1

SKBR3 = tested on: SKBR3
Description: as §1

BT-20 = tested on: BT-20
Description: as §1

MDA-MB-231 = tested on: MDA-MB-231
Description: as §1

Row | SMILES | relative cell number (HCC-38; 10 nM) | relative cell number (HCC-38; 100 nM) | relative cell number (HCC-38; 1000 nM) | relative cell number (HCC-38; 10000 nM) | relative cell number (ZR-75-1; 10 nM) | relative cell number (ZR-75-1; 100 nM) | relative cell number (ZR-75-1; 1000 nM) | relative cell number (ZR-75-1; 10000 nM) | relative cell number (SKBR3; 10 nM) | relative cell number (SKBR3; 100 nM) | relative cell number (SKBR3; 1000 nM) | relative cell number (SKBR3; 10000 nM) | relative cell number (BT-20; 10 nM) | relative cell number (BT-20; 100 nM) | relative cell number (BT-20; 1000 nM) | relative cell number (BT-20; 10000 nM) | relative cell number (MDA-MB-231; 10 nM) | relative cell number (MDA-MB-231; 100 nM) | relative cell number (MDA-MB-231; 1000 nM) | relative cell number (MDA-MB-231; 10000 nM) | relative cell number (HCC-38; 1 nM) | relative cell number (ZR-75-1; 1 nM) | relative cell number (SKBR3; 1 nM) | relative cell number (BT-20; 1 nM) | relative cell number (MDA-MB-231; 1 nM)
1 | C=CC(=O)Nc1cc2c(Nc3ccc(F)c(Cl)c3)ncnc2cc1OCCCN1CCOCC1 [Canertinib] | 97 ± 19 | 110 ± 9.9 | 87 ± 12 | 9.97 ± 5 | 117 ± 23 | 113 ± 22 | 63.6 ± 13 | 41.2 ± 9.9 | 81.6 ± 12 | 56.6 ± 18 | 39.1 ± 14 | 16.3 ± 0.86 | 69.3 ± 4.2 | 59.3 ± 7.5 | 75.3 ± 11 | 41.5 ± 21 | 87.7 ± 26 | 60.8 ± 6.4 | 78.7 ± 21 | 9.74 ± 5.8 |  |  |  |  | 
2 | CC(C)C[C@H](NC(=O)[C@H](CCc1ccccc1)NC(=O)CN1CCOCC1)C(=O)N[C@@H](Cc1ccccc1)C(=O)N[C@@H](CC(C)C)C(=O)[C@@]1(C)CO1 [Carfilzomib] | 31.4 ± 4.7 | 8.48 ± 4 | 4.65 ± 0.23 |  | 89.9 ± 9.1 | 22.8 ± 13 | 7.73 ± 3.8 |  | 33.5 ± 8.4 | 11.2 ± 8.9 | 7.64 ± 5.5 |  | 80.32 ± 0.3 | 21.4 ± 4.5 | 14.6 ± 1.8 |  | 91 ± 32 | 37.8 ± 22 | 18.7 ± 5.8 |  | 76.3 ± 6.3 | 73.3 ± 12 | 58.5 ± 9.1 | 80.9 ± 18 | 83.2 ± 3.2
3 | COc1cc2c(Oc3ccc4[nH]c(C)cc4c3F)ncnc2cc1OCCCN1CCCC1 [Cediranib] | 108 ± 8.3 | 100 ± 1.8 | 59.3 ± 0.64 | 9.73 ± 0.54 | 113 ± 5.5 | 87.5 ± 7.5 | 86.3 ± 5.5 | 10.9 ± 2.5 | 103 ± 25 | 85.8 ± 14 | 113 ± 29 | 11.1 ± 1.2 | 104 ± 8.7 | 100 ± 29 | 104 ± 9 | 27.9 ± 8.5 | 91.3 ± 3.8 | 114 ± 20 | 104 ± 33 | 15.9 ± 2.8 |  |  |  |  | 
4 | O=C(O)CCCc1ccc(N(CCCl)CCCl)cc1 [Chlorambucil] | 90.4 ± 5.5 | 98.6 ± 12 | 96 ± 3.8 | 67.5 ± 2.6 | 81.3 ± 21 | 83.3 ± 26 | 78 ± 34 | 86.17 ± 0.75 | 107 ± 1.5 | 74.5 ± 4.3 | 82.17 ± 0.55 | 64.2 ± 2.1 | 100 ± 3 | 72.6 ± 16 | 93.2 ± 18 | 81.2 ± 22 | 99.2 ± 7.3 | 94.9 ± 9.4 | 91 ± 18 | 63.5 ± 24 |  |  |  |  | 
5 | Cc1cc(C2CCCCC2)n(O)c(=O)c1 [Ciclopirox] | 88.3 ± 8.2 | 93.6 ± 11 | 77.4 ± 3.9 | 13.6 ± 2.9 | 112 ± 34 | 93.9 ± 19 | 41.4 ± 1.6 | 18.3 ± 1.6 | 105 ± 24 | 83.3 ± 22 | 86.9 ± 17 | 17.3 ± 9.5 | 96.4 ± 11 | 95.2 ± 19 | 65.7 ± 2.8 | 25.2 ± 7.7 | 112 ± 16 | 125 ± 41 | 49.1 ± 5.4 | 20.4 ± 5.6 |  |  |  |  | 
6 | CN/C(=N\CCSCc1nc[nH]c1C)NC#N [Cimetidine] | 101 ± 16 | 97.2 ± 9.8 | 88.8 ± 11 | 101 ± 7.5 | 103 ± 4.7 | 121 ± 47 | 101 ± 17 | 133 ± 39 | 78.8 ± 35 | 141 ± 62 | 107.1 ± 0.53 | 110 ± 13 | 111 ± 2.3 | 108 ± 20 | 100 ± 8.2 | 106 ± 15 | 103 ± 22 | 106 ± 46 | 95.5 ± 9.1 | 92.2 ± 9.2 |  |  |  |  | 
7 | N.N.[Cl][Pt][Cl] [Cisplatin] | 114 ± 20 | 79.6 ± 12 | 115 ± 13 | 93.4 ± 8.6 | 89.8 ± 18 | 88.2 ± 45 | 89.7 ± 35 | 74.5 ± 27 | 97.5 ± 2.7 | 84.6 ± 5.9 | 81.5 ± 8.8 | 110 ± 3.5 | 100 ± 7.4 | 80.4 ± 4.7 | 111 ± 5.1 | 89 ± 2.7 | 95 ± 3.3 | 87.8 ± 8.9 | 99.8 ± 51 | 116 ± 20 |  |  |  |  | 
8 | Nc1nc(Cl)nc2c1ncn2[C@@H]1O[C@H](CO)[C@@H](O)[C@@H]1F [Clofarabine] | 98.6 ± 18 | 25.9 ± 0.79 | 12.6 ± 1.4 | 12.4 ± 6.4 | 72.7 ± 31 | 63.6 ± 9.1 | 22.1 ± 3.6 | 25.4 ± 15 | 65.5 ± 37 | 45.5 ± 1.9 | 10.2 ± 1.7 | 8.24 ± 1.4 | 103 ± 44 | 73.9 ± 4.4 | 27 ± 2.8 | 26.5 ± 1.5 | 82.8 ± 26 | 30 ± 7.7 | 12 ± 1.1 | 22.7 ± 0.75 |  |  |  |  | 
9 | C[C@@H](Oc1cc(-c2cnn(C3CCNCC3)c2)cnc1N)c1c(Cl)ccc(F)c1Cl [Crizotinib] | 91.2 ± 15 | 85.708 ± 0.047 | 86.8 ± 2.8 | 25.9 ± 4.9 | 75.6 ± 19 | 116 ± 13 | 34.1 ± 13 | 14.6 ± 0.35 | 92.7 ± 20 | 98.4 ± 12 | 88.6 ± 8.4 | 37.4 ± 27 | 83.9 ± 22 | 100.3 ± 0.25 | 75.5 ± 12 | 44.2 ± 4.7 | 89.5 ± 29 | 88.8 ± 15 | 54 ± 14 | 8.63 ± 0.23 |  |  |  |  | 
10 | COc1cc(/C=C/C(=O)CC(=O)/C=C/c2ccc(O)c(OC)c2)ccc1O [Curcumin] | 100 ± 14 | 97.5 ± 7 | 95.5 ± 7.2 | 85.5 ± 21 | 73.8 ± 1.7 | 84.5 ± 52 | 112 ± 46 | 72.5 ± 0.98 | 106 ± 29 | 82.86 ± 0.028 | 111 ± 7.2 | 66.7 ± 0.98 | 116 ± 7.8 | 107 ± 32 | 95.9 ± 6.5 | 95.3 ± 16 | 91.8 ± 29 | 136 ± 59 | 88.6 ± 8.1 | 61.55 ± 0.48 |  |  |  |  | 
11 | O=P1(N(CCCl)CCCl)NCCCO1 (stereo not given) [Cyclophosphamide] | 89.7 ± 13 | 86.8 ± 5.3 | 93.6 ± 5.8 | 94.7 ± 8.6 | 83.2 ± 52 | 111 ± 50 | 81.3 ± 37 | 89 ± 21 | 88.4 ± 22 | 86.2 ± 26 | 102 ± 19 | 93.3 ± 7.1 | 81.2 ± 1.5 | 114 ± 0.31 | 107 ± 5.6 | 114 ± 8.3 | 96.1 ± 29 | 134 ± 22 | 74 ± 11 | 136 ± 10 |  |  |  |  | 
